Laboratory results as given in patent publication US20260083864A1, “CONTRAST AGENTS FOR USE IN DIAGNOSTIC COMPUTED TOMOGRAPHY IMAGING” (Bayer Aktiengesellschaft, priority 2022, published 2026).

Assays:
[1] = Complex stability (transmetallation) against Zn2+ in phosphate buffer; settings: 72 hours, 2.5 mM Zn^2+, 26 mM phosphate buffer, 37° C., pH 7.4
Excerpt: If test compounds are instable under these conditions, transmetallation during this test would lead to the formation of the Zn^2+ complex of the test item, while Gd^3+ is released and precipitated as highly insoluble GdPO4.

[2] = Relaxivity measurements at 1.41 T in water; format: physicochemical; settings: 37° C., normalized to Gd
Summary of the method: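 T1 by inversion recovery and T2 by CPMG at 1.41 T (60 MHz), 37° C, relaxation delay ≥5×T1. Three Gd concentrations between 0.05 and 2 mM; relaxivities derived from measured relaxation rates in water.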

[3] = test system: freshly isolated rat hepatocytes; assay: Uptake into freshly isolated rat hepatocytes; settings: for Uptake rat hepatocytes: 100 μmol Gd/L, 10 min, 37° C., relative to RC1 (Gd-EOB-DTPA); for Inhibition Rifampicine: rat hepatocyte uptake, test item and Rifampicine 1:1, each 100 μM
OATP1B3 = molecular target: T1, OATP1B3 (Homo sapiens, UniProt Q9NPD5); assay: Uptake into stable transfected OATP1B3 HEK 293 cells; format: cell-based; settings: for Uptake into OATP1B3-HEK 293 cells: 40 min incubation, relative to RC1 (Gd-EOB-DTPA); for Inhibition Rifampicine: uptake into OATP1B3-HEK 293 cells
T1 sequence (Q9NPD5 1-702): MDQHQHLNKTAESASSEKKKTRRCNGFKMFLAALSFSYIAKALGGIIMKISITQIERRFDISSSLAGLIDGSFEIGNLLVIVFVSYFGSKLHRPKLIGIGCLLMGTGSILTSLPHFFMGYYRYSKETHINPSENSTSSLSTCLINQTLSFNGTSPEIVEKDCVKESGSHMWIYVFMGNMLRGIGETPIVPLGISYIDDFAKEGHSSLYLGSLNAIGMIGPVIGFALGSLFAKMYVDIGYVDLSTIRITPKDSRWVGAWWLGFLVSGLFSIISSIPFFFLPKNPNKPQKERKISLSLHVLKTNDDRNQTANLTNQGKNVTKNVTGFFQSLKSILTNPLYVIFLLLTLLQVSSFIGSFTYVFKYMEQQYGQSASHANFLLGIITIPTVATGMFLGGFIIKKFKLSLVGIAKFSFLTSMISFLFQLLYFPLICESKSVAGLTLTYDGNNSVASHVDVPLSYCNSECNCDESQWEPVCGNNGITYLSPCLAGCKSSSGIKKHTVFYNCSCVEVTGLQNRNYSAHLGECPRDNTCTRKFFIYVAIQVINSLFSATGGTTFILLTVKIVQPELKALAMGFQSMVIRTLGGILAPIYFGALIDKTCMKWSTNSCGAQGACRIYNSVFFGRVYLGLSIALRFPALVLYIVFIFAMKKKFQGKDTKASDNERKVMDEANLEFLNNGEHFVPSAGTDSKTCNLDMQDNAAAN
Summary of the method: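 HEK 293 cells stably transfected with human OATP1B3 were incubated for 40 min with test items at 100 μM final in transport buffer, in triplicate, then washed with cold PBS. Gadoxetate (Gd-EOB-DTPA) served as the reference standard on the same plate.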

[4] = Partition coefficient (log P butanol/buffer); format: physicochemical; settings: 1-butanol / 50 mM Tris-HCl, pH 7.4, room temperature
OATP1B1 = molecular target: T2, OATP1B1 (Homo sapiens, UniProt Q9Y6L6); assay: Uptake into stable transfected OATP1B1 HEK 293 cells; format: cell-based; settings: for Uptake into OATP1B1-HEK 293 cells: 40 min incubation, relative to RC1 (Gd-EOB-DTPA); for Inhibition Rifampicine: uptake into OATP1B1-HEK 293 cells
T2 sequence (Q9Y6L6 1-691): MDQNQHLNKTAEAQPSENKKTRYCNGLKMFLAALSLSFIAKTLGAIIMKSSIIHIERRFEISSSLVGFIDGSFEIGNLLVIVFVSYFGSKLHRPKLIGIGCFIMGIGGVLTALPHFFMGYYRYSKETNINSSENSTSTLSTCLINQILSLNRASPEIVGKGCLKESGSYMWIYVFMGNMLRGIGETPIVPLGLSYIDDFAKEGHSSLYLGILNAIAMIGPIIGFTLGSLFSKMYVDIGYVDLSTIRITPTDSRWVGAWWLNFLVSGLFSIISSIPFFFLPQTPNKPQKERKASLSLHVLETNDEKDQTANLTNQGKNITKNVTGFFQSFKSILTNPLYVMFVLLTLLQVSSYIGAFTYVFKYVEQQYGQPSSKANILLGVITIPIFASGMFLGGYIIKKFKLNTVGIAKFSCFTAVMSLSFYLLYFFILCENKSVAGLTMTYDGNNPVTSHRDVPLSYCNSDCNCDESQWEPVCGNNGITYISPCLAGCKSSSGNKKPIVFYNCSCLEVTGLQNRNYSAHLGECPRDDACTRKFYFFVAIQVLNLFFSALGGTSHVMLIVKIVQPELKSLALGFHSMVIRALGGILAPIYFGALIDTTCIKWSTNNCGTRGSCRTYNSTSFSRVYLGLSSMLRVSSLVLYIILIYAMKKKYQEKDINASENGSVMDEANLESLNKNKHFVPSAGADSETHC
Summary of the method: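 Stably transfected OATP1B1 HEK293 cells incubated 40 min without shaking with test item at 100 µM final in transport buffer, in triplicate. Cells then washed with cold PBS; gadoxetate run on the same plate as reference.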

[5] = Water solubility in aqueous buffer; settings: aqueous buffer 10 mM Tris-HCl, pH 7.4, 20° C.
Protocol: The solid compounds were added stepwise to the buffer solution. More substance is added once all the suspended material is dissolved until an equilibrium between undissolved and dissolved substance is reached. The suspension was mixed using a shaker (Heidolph Reax 2000) and treated 5 min in an ultrasound bath (Bandelin, Sonorex Super RK255H).

[6] = Relaxivity measurements at 1.41 T in human plasma; format: physicochemical; settings: 37° C., normalized to Gd
Summary of the method: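 T1 determined by inversion recovery (8 inversion-time steps) and T2 by CPMG sequence, both with relaxation delay ≥5×T1. Each relaxivity used three Gd concentrations between 0.05 and 2 mM. Relaxivities were derived from relaxation rates measured in water and plasma.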

Compound | Transmetallation stability [1] | r1 water [2] | Uptake rat hepatocytes [3] | Inhibition Rifampicine [3] | Uptake into OATP1B3-HEK 293 cells (OATP1B3) | Inhibition Rifampicine (OATP1B3) | Log P (partition coefficient butanol/buffer) [4] | Uptake into OATP1B1-HEK 293 cells (OATP1B1) | Inhibition Rifampicine (OATP1B1) | Solubility [5] | r1 human plasma [6]
CCOCCOCCOc1ccc(C[C@H](C(=O)O)N2CCN(CC(=O)[O-])CCN(CC(=O)[O-])CCN(CC(=O)[O-])CC2)cc1.[Gd+3] [Example 4, gadolinium 2,2′,2″-{10-[(1R)-1-carboxy-2-{4-[2-(2-ethoxyethoxy)ethoxy]phenyl}ethyl]-1,4,7,10-tetraazacyclododecane-1,4,7-triyl}triacetate] | 100% | 4.2 L/mmol/s | 72 % of RC1 | 98 % inhibition | 58 % of RC1 | 98 % inhibition | −1.61 | 126 % of RC1 | 40 % inhibition | >75 mM | 6.5 L/mmol/s
CCOCCOCCOc1ccc(CC(C(=O)O)N2CCN(CC(=O)[O-])CCN(CC(=O)[O-])CCN(CC(=O)[O-])CC2)cn1.[Gd+3] (stereo not drawn) [Example 16, gadolinium 2,2′,2″-{10-[1-carboxy-2-{6-[2-(2-ethoxyethoxy)ethoxy]pyridin-3-yl}ethyl]-1,4,7,10-tetraazacyclododecane-1,4,7-triyl}triacetate] | 101% | 4.4 L/mmol/s | 16 % of RC1 | 92 % inhibition | 25 % of RC1 | 94 % inhibition | −1.81 | 66 % of RC1 | 35 % inhibition | >416 mM | 6.2 L/mmol/s
CCOCCOCCOc1ccc(CCCC(C(=O)O)N2CCN(CC(=O)[O-])CCN(CC(=O)[O-])CCN(CC(=O)[O-])CC2)cc1.[Gd+3] (stereo not drawn) [Example 25, gadolinium 2,2′,2″-{10-[1-carboxy-4-{4-[2-(2-ethoxyethoxy)ethoxy]phenyl}butyl]-1,4,7,10-tetraazacyclododecane-1,4,7-triyl}triacetate] | 103% | 4.6 L/mmol/s | 82 % of RC1 | 96 % inhibition | 58 % of RC1 | 93 % inhibition | −1.00 | 30 % of RC1 | 75 % inhibition | 306 mM | 7.5 L/mmol/s
CCOCCOCCOc1ccc(CCC[C@@H](C(=O)O)N2CCN(CC(=O)[O-])CCN(CC(=O)[O-])CCN(CC(=O)[O-])CC2)cc1.[Gd+3] [Example 26, gadolinium 2,2′,2″-{10-[(1S)-1-carboxy-4-{4-[2-(2-ethoxyethoxy)ethoxy]phenyl}butyl]-1,4,7,10-tetraazacyclododecane-1,4,7-triyl}triacetate] | 99% | 4.5 L/mmol/s | 77 % of RC1 | 97 % inhibition | 64 % of RC1 | 93 % inhibition | −1.01 | 386 % of RC1 | 73 % inhibition | >62 mM | 7.5 L/mmol/s
CCOc1ccc(CCCC(C(=O)O)N2CCN(CC(=O)[O-])CCN(CC(=O)[O-])CCN(CC(=O)[O-])CC2)cc1.[Gd+3] (stereo not drawn) [Example 28, gadolinium 2,2′,2″-{10-[1-carboxy-4-(4-ethoxyphenyl)butyl]-1,4,7,10-tetraazacyclododecane-1,4,7-triyl}triacetate] | 101% | 4.4 L/mmol/s | 72 % of RC1 | 98 % inhibition | 36 % of RC1 | 97 % inhibition | −0.71 | 294 % of RC1 | 94 % inhibition | >194 mM | 10.6 L/mmol/s
CCCCOc1ccc(CCC[C@@H](C(=O)O)N2CCN(CC(=O)[O-])CCN(CC(=O)[O-])CCN(CC(=O)[O-])CC2)cc1.[Gd+3] [Example 31, gadolinium 2,2′,2″-{10-[(1S)-4-(4-butoxyphenyl)-1-carboxybutyl]-1,4,7,10-tetraazacyclododecane-1,4,7-triyl}triacetate] | 102% | 4.4 L/mmol/s | 87 % of RC1 | 94 % inhibition | 194 % of RC1 | 99 % inhibition | 0.20 | 1919 % of RC1 | 98 % inhibition | >255 mM | 15.8 L/mmol/s
